Measurements as given in the supplement of paper PMC10307832.

Assays:
YM155 = compound: COCC[n+]1c2c(n(Cc3cnccn3)c1C)C(=O)c1ccccc1C2=O [YM155]; assay: relative viability (nuclei count vs DMSO), 5 days (fraction); higher = more cells survive
Summary of the method: (§1)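 Vehicle-anchored 1536-well plates of lung cancer cell lines, held overnight at 37 °C, were pinned with five library-drug doses (not always all listed) spaced by √10. No medium change followed over the next 5 days, after which the cells were fixed, permeabilised and Hoechst-stained together and imaged at 4×. Nuclei were counted with MetaXpress, and viability is treated-well nuclei over vehicle-well nuclei, taken as a median across plates. Plates passed with control CV below 25% and at least one doubling.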

Quizartinib = compound: CC(C)(C)c1cc(NC(=O)Nc2ccc(-c3cn4c(n3)sc3cc(OCCN5CCOCC5)ccc34)cc2)no1 [Quizartinib]; assay: as above
Summary of the method: as §1

| Cell Line | relative viability (YM155; 0.002 µM) | relative viability (YM155; 0.006325 µM) | relative viability (YM155; 0.02 µM) | relative viability (YM155; 0.06325 µM) | relative viability (Quizartinib; 0.001 µM) | relative viability (Quizartinib; 0.003162 µM) | relative viability (Quizartinib; 0.01 µM) | relative viability (Quizartinib; 0.03162 µM) | relative viability (Quizartinib; 0.1 µM) |
| --- | --- | --- | --- | --- | --- | --- | --- | --- | --- |
| HCC-78 | 0.898 | 1.08 | 1.08 | 1.05 | 0.967 | 1.03 | 0.911 | 0.865 | 0.988 |
| HCC-366 | 1.05 | 0.993 | 1.01 | 1.06 | 0.978 | 1.04 | 1.06 | 1.04 | 1.02 |
| HCC-827 | 0.986 | 1.05 | 1.03 | 1.11 | 0.943 | 1.04 | 0.978 | 1.03 | 1.09 |
| HOP-62 | 0.971 | 0.93 | 1.06 | 0.93 | 0.843 | 0.954 | 1.01 | 1.1 | 0.979 |
| IA-LM | 0.864 | 0.969 | 1.04 | 0.764 | 0.889 | 0.992 | 1.11 | 0.924 | 0.933 |
| LC-2-ad | 0.914 | 0.978 | 0.972 | 0.913 | 0.827 | 1.02 | 0.972 | 0.863 | 0.892 |
| LCLC-97TM1 | 0.791 | 0.955 | 1.04 | 0.957 | 0.771 | 0.968 | 0.918 | 0.964 | 1 |
| LCLC-103H | 0.996 | 0.941 | 0.932 | 1.02 | 0.87 | 0.983 | 0.911 | 0.994 | 0.971 |
| LK-2 | 0.893 | 1.06 | 1.03 | 1.16 | 0.943 | 0.891 | 1.02 | 0.944 | 1.15 |
| LOU-NH91 | 0.958 | 1.01 | 1.02 | 1.07 | 0.954 | 1.12 | 0.965 | 0.857 | 1.14 |
| LU99A | 1.01 | 1.01 | 0.984 | 0.938 | 0.889 | 0.906 | 1.05 | 1.09 | 0.842 |
| LXF-289 | 0.998 | 1.01 | 1.04 | 0.973 | 0.924 | 0.976 | 1.05 | 0.957 | 0.998 |
| NCI-H23 | 0.734 | 0.925 | 0.957 | 0.529 | 0.742 | 1.01 | 0.918 | 0.896 | 1.05 |
| NCI-H322M | 0.92 | 0.982 | 1 | 1.03 | 0.952 | 1.03 | 0.916 | 0.965 | 0.978 |
| NCI-H358 | 0.831 | 0.954 | 1.07 | 0.34 | 0.892 | 0.979 | 0.841 | – | 0.873 |
| NCI-H441 | 0.9 | 1.15 | 0.795 | 0.759 | 0.919 | 0.946 | 0.945 | 0.764 | 1.14 |
| NCI-H460 | 0.984 | 1.02 | 0.997 | 0.988 | 0.811 | 0.957 | 1.02 | 0.78 | 0.942 |
| NCI-H520 | 1.01 | 1.03 | 1.05 | 1.17 | 0.73 | 0.867 | 0.96 | 0.903 | 0.921 |
| NCI-H522 | 0.913 | 0.923 | 1.08 | 0.997 | 0.874 | 1.09 | 1.04 | 0.901 | 0.97 |
